Patent US8962612B2, “Tetrahydroisoquinoline derivative” (Astellas Pharma Inc, priority 2011, dated 2015)

Assays:
human 5-HT5A receptor = human 5-HT5A receptor (Homo sapiens (Human), UniProt P47898); experiment: Human 5-HT5A receptor binding inhibition test ([3H]5-CT); settings: [3H]5-CT binding, membranes of HEK293 cells expressing human 5-HT5A receptor; Ki calculated from IC50, Kd 4.95 nM
Procedure: An open reading frame (ORF; protein coding region) of human 5-HT5A receptor (Genbank AF498985) was cloned from a human hippocampus cDNA library and then inserted into a pCR2.1 vector (Invitrogen), and E. coli carrying the plasmid was cultured in a large scale. Thereafter, a full-length cDNA sequence of the human 5-HT5A receptor was analyzed and recombined into pcDNA3.1 vector (Invitrogen) as an expression vector, followed by a large scale culturing. The HEK293 cells (ATCC) as a human embryonic kidney-derived cell line were seeded, and the expression plasmid (1 μg) obtained as above was added thereto together with LIPOFECTAMINE 2000 (Invitrogen; 2 μl) to introduce genes into the HEK293 cells. Subsequently, expression cells were screened using Geneticin (G418 sulfate 500 μg/ml; KANTO KAGAKU) as a drug resistance marker. The recombinant cells expressing the genes prepared in this manner were cultured for 3 days in Dulbecco's Modified Eagle Medium (D-MEM, Sigma) supplemented with 10% fetal calf serum (FCS), 1% penicillin/streptomycin (Pc./Sm, Invitrogen), and 500 μg/ml G418. The above experimental procedure was performed according to a genetic engineering experiment manual of a known method (Sambrook, J. et al, “Molecular Cloning-A Laboratory manual”, Cold Spring Harbor Laboratory, NY, 1989) or the like, or the instruction attached to the reagents.
The HEK293 cells forced to express the human 5-HT5A receptor were cultured in a F500 plate and collected by being scarped with a scraper. After centrifugation, the sediment was collected, and an incubation buffer (50 mM Tris(HCl), pH 7.4, 10 mM MgSO4, 0.5 mM ethylenediaminetetraacetic acid (EDTA)) was added thereto. After homogenization, centrifugation was performed again, and the sediment was thoroughly suspended in the incubation buffer added thereto. After this procedure was repeated, the protein concentration was measured, thereby completing membrane preparation.
A test compound and 150 μM of a DMSO solution of 5-carboxamide tryptamine (5-CT) were added to a 96-well plate at 2 μl/well and suspended in the incubation buffer, and the HEK293 cells forced to express the human 5-HT5A receptor that were prepared at a concentration of 200 μg/ml were added thereto at 100 μl/well. The cells were incubated for 15 minutes at room temperature, and then a [^3H]5-CT solution (3 nM [^3H]5-CT, incubation buffer) was added thereto at 100 μl/well.
100 μl of the cell solution was separately dispensed into a liquid scintillation vial, and 2 ml of Aquasol II (registered trademark) was added thereto, followed by stirring. Thereafter, the radioactivity thereof was measured using a liquid scintillation counter. The cells were incubated for 60 minutes at 37° C. The reaction mixture was aspirated into a 96-well GF/C filter plate having undergone pretreatment with 0.2% polyethyleneimine, and washed 6 times with an ice-cold 50 mM Tris (pH 7.4) buffer. Thereafter, the GF/C filter plate was dried.
MicroScint™-PS (registered trademark) was added to the plate at 40 μl/well, and the radioactivity remaining on the GF/C filter plate was measured using TopCount.
In each test example, regarding the [^3H]5-CT binding inhibitory activity resulting from the test compound, the radioactivity at the time when only DMSO was added was regarded as 0%, and the radioactivity at the time when 1.5 μM 5-CT was added was regarded as 100% inhibition, thereby calculating an IC50 value. In addition, from a Kd value of [^3H]5-CT obtained from Scatchard analysis, a Ki value was calculated by the following formula. Ki=IC50/(1+concentration of ligand added/Kd(4.95 nM))

BALB/3T3 = experiment: Test for evaluating phototoxic effect (neutral red incorporation, UV irradiation); assay type: cell-based; settings: BALB/3T3, UV 70 minutes 1200 μW/cm2 vs non-irradiated
Procedure: 1) BALB/3T3 is peeled from a culture flask, and the cell number is counted.
2) The cell concentration is adjusted to 0.7×10^5 cells/ml, and the cells are seeded into a 96-well plate at 100 μl/well. PBS is added in an amount of 100 μl to a line of wells in both ends where the cells are not seeded.
3) The cells are cultured in a CO2 incubator for 1 day.
4) DMSO is added to a test compound, and the EBSS is further added thereto and dissolved. Ultrasonic waves, heating.
5) The compound solution of the highest concentration is transferred to the adjacent tube by 300 μL. This operation is repeated to prepare solutions having serial dilution concentration.
10) For each compound, compound solutions of 8-serial dilutions are dispensed at 100 μL/well.
11) The plates are allowed to stand still in a dark place (in a drawer of a lab bench) for 60 minutes.
12) Thereafter, the plates are irradiated with UV for 70 minutes (1200 μW/cm^2). The plate not irradiated is put in an empty box.
1) Neutral red (NR) is prepared in an amount of 50 μg/ml
3) The NR solution is dispensed at 100 μL/well.
4) Culturing is performed for 3 hours in a CO2 incubator.
8) The NR eluent is dispensed at 150 μl/well.
10) An absorbance at 540 nm is measured using a microplate reader.
According to the above test example 8, several compounds of formula (I) were evaluated. […] Herein, MPE refers to a value showing Mean Photo Effect. MPE can be calculated according to Equation 2 of the following document, for example.

male ddy mouse = experiment: Scopolamine-induced spontaneous alternation behavior in mouse (Y-maze); assay type: in vivo; settings: scopolamine 0.5 mg/kg i.p., alternation rate, p<0.05 vs control
Procedure: The improvement effect of the compound of formula (I) on dementia and the cognitive disease of schizophrenia was evaluated by the known test method described above by using a short-term learning disability model.
10 to 30 minutes after the test compound was orally administered, scopolamine at 0.5 mg/kg or MK-801 (physiological saline for a normal group) at 0.15 mg/kg was intraperitoneally administered, and the test was performed 20 minutes after the administration. In addition, for a normal group (group administered with physiological saline) and a control group (group administered with scopolamine at 0.5 mg/kg or MK-801 at 0.15 mg/kg), a vehicle was orally administered when the test compound was administered.
The mouse was put into one end of an arm of a maze (Y-maze) having arms of the same length that extended in three directions. The mouse was allowed to freely explore for 8 minutes, and the number of entries into the arm for the 8 minutes was counted. Moreover, a case where the mouse consecutively entered three different arms was regarded as spontaneous alternation behavior, and a ratio of the number of times of such a behavior to the total entry number was regarded as alternation rate and calculated by the following formula. Alternation rate(%)=number of times of spontaneous alternation behavior/(total entry number−2)×100
When a significant difference (Student's T test) was observed between the normal group and the control group in the alternation rate (%), the learning disability was considered to be induced by the administration of scopolamine or MK-801. By performing Dunnette's test for comparing the test compound-administered groups with the control group, whether or not the test compound has an action […] was determined. In each test, p<0.10 was regarded as a trend, and p<0.05 was regarded as a significant difference.

male ICR mouse [1] = experiment: MK-801-induced increase in level of physical activity (hyperactivity) of mouse; assay type: in vivo; settings: MK-801 0.3 mg/kg, significance P<0.05 vs vehicle
Procedure: (§1) The improvement effect of the compound of formula (I) on schizophrenia was evaluated by the measurement of the level of physical activity reduced by the administration of the compound, in a model having symptoms induced by methamphetamine (hereinafter, abbreviated to MAP) and MK-801.
(§2) The animals were taken out of a breeding cage, and the test compound was orally administered to the animal. Thereafter, the animals were put in the breeding cage. 30 minutes later, the animals were put in a cage for measurement, and the level of physical activity of the animals administered only with the test compound was measured. Another 30 to 90 minutes later, the animals were taken out, and drugs (MAP; 1.5 mg/kg or MK-801; 0.3 mg/kg dissolved in physiological saline) increasing the level of physical activity were respectively administered to the animals subcutaneously or intraperitoneally. The level of physical activity for a certain period of time (60 minutes) was measured using an instrument measuring a level of physical activity (CompACT AMS, MUROMACHI KIKAI CO., LTD.) by an infrared sensor.
For the normal mouse (mouse administered with physiological saline) and the mouse administered with the medication increasing the level of physical activity, Student's T test was performed in the respective intervals to judge the effect. For the group administered with the test compound, Dunnett's T test was performed for the comparison with a vehicle group, whereby the effect of the compound was tested. When there was a significant difference (P<0.05), the compound was judged to be effective.

male ICR mouse [2] = experiment: Methamphetamine (MAP)-induced increase in level of physical activity (hyperactivity) of mouse; assay type: in vivo; settings: oral dose 0.03 mg/kg; MAP 1.5 mg/kg; significance P<0.05 vs vehicle
Procedure: as §1, §2
For the normal mouse (mouse administered with physiological saline) and the mouse administered with the medication increasing the level of physical activity, Student's T test was performed in the respective intervals to judge the effect. […]

Sequence of human 5-HT5A receptor (P47898 whole entry): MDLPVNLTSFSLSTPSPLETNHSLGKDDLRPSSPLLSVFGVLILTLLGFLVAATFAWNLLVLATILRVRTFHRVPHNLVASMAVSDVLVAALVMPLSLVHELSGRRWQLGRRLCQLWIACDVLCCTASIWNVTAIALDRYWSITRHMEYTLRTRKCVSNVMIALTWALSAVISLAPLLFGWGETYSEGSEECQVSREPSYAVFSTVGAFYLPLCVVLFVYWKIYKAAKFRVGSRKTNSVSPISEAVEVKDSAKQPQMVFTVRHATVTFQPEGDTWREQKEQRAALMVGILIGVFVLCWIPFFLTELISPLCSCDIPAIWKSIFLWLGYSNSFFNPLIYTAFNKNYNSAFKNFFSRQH

SMILES	Ki (human 5-HT5A receptor)	also measured
NC(N)=NC(=O)N1CCc2c(F)ccc(-c3ncc(Cl)cc3F)c2C1 [Ex 4, 8-(5-chloro-3-fluoropyridin-2-yl)-N-(diaminomethylene)-5-fluoro-3,4-dihydroisoquinoline-2(1H)-carboxamide]	4.3 nM	–
NC(N)=NC(=O)N1CCc2cccc(-c3cc(F)c(F)cc3F)c2C1 [Ex 8]	3.6 nM	–
NC(N)=NC(=O)N1CCc2c(Cl)ccc(-c3c(F)cc(F)cc3F)c2C1 [Ex 23]	1.1 nM	MPE (Mean Photo Effect) (BALB/3T3): 0.00; scopolamine-induced spontaneous alternation behavior (male ddy mouse; oral dose 0.003 mg/kg): significantly inhibited; hyperactivity induced by MK-801 (male ICR mouse [1]; oral dose 0.03 mg/kg): significantly suppressed
NC(N)=NC(=O)N1CCc2c(F)ccc(-c3c(F)cc(F)cc3F)c2C1 [Ex 26]	0.68 nM	hyperactivity induced by MAP (male ICR mouse [2]): significantly inhibited; MPE (Mean Photo Effect) (BALB/3T3): 0.00; scopolamine-induced spontaneous alternation behavior (male ddy mouse; oral dose 0.03 mg/kg): significantly inhibited; hyperactivity induced by MK-801 (male ICR mouse [1]; oral dose 0.03 mg/kg): significantly suppressed
NC(N)=NC(=O)N1CCc2c(F)ccc(-c3c(F)cccc3F)c2C1 [Ex 28]	1.1 nM	hyperactivity induced by MAP (male ICR mouse [2]): significantly inhibited; MPE (Mean Photo Effect) (BALB/3T3): 0.00; scopolamine-induced spontaneous alternation behavior (male ddy mouse; oral dose 0.003 mg/kg): significantly inhibited; hyperactivity induced by MK-801 (male ICR mouse [1]; oral dose 0.03 mg/kg): significantly suppressed
NC(N)=NC(=O)N1CCc2c(Cl)ccc(-c3ccc(F)cc3F)c2C1 [Ex 44]	2.7 nM	–
Cl.NC(N)=NC(=O)N1CCc2c(F)ccc(-c3ncc(F)cc3F)c2C1 [Ex 46]	6.9 nM	scopolamine-induced spontaneous alternation behavior (male ddy mouse; oral dose 0.003 mg/kg): significantly inhibited; hyperactivity induced by MK-801 (male ICR mouse [1]; oral dose 0.03 mg/kg): significantly suppressed
NC(N)=NC(=O)N1Cc2c(-c3ccc(F)cc3F)ccc(Cl)c2C(F)C1 (stereo not drawn) [Ex 49]	6.6 nM	–
Cc1ccc(-c2ncc(F)cc2F)c2c1CCN(C(=O)N=C(N)N)C2 [Ex 60]	3.9 nM	hyperactivity induced by MK-801 (male ICR mouse [1]; oral dose 0.03 mg/kg): significantly suppressed
NC(N)=NC(=O)N1CCc2c(Cl)ccc(-c3c(F)cncc3F)c2C1 [Ex 61]	2.5 nM	–
NC(N)=NC(=O)N1CCc2c(F)ccc(-c3ncc(Cl)cc3Cl)c2C1 [Ex 62]	1.9 nM	scopolamine-induced spontaneous alternation behavior (male ddy mouse; oral dose 0.003 mg/kg): significantly inhibited; hyperactivity induced by MK-801 (male ICR mouse [1]; oral dose 0.01 mg/kg): significantly suppressed
NC(N)=NC(=O)N1Cc2c(-c3c(F)cccc3F)ccc(F)c2C2(CC2)C1 [Ex 66]	0.75 nM	–
CC1CN(C(=O)N=C(N)N)Cc2c(-c3c(F)cccc3F)ccc(F)c21 (stereo not drawn) [Ex 69]	1.6 nM	–
NC(N)=NC(=O)N1Cc2c(-c3c(F)cc(F)cc3F)ccc(F)c2C2(CC2)C1 [Ex 74]	0.88 nM	–
NC(N)=NC(=O)N1Cc2c(C3CC3)ccc(F)c2C2(CC2)C1 [Ex 76]	2.7 nM	hyperactivity induced by MK-801 (male ICR mouse [1]; oral dose 0.1 mg/kg): significantly suppressed
NC(N)=NC(=O)N1Cc2c(-c3cc(F)c(F)cc3F)ccc(F)c2C2(CC2)C1 [Ex 78]	1.3 nM	scopolamine-induced spontaneous alternation behavior (male ddy mouse; oral dose 0.03 mg/kg): significantly inhibited; hyperactivity induced by MK-801 (male ICR mouse [1]; oral dose 0.1 mg/kg): significantly suppressed
NC(N)=NC(=O)N1CCc2c(F)ccc(-c3cc(F)c(F)cc3F)c2C1 [Ex 79]	3.7 nM	–
NC(N)=NC(=O)N1Cc2c(-c3ccc(F)cc3F)ccc(F)c2C2(CC2)C1 [Ex 80]	0.85 nM	–
NC(N)=NC(=O)N1CCc2cccc(-c3ncc(F)cc3F)c2C1 [Ex 81]	4.2 nM	–
NC(N)=NC(=O)N1Cc2c(-c3ccccc3F)ccc(F)c2C2(CC2)C1 [Ex 86]	0.95 nM	–
